The results in this text go back to US11319321B2, “[1,2,4]triazolo[1,5-a]pyrimidine compounds as PDE2 inhibitors” (Janssen Pharmaceutica NV, priority 2016, dated 2022).

Molecules are shown by their SMILES.

One assay deals with T1, Human recombinant PDE2A (hPDE2A) (Homo sapiens, UniProt O00408).
T1 construct: made in house; host or cells: Sf9 insect cells (baculovirus)
T1 sequence (O00408 whole entry): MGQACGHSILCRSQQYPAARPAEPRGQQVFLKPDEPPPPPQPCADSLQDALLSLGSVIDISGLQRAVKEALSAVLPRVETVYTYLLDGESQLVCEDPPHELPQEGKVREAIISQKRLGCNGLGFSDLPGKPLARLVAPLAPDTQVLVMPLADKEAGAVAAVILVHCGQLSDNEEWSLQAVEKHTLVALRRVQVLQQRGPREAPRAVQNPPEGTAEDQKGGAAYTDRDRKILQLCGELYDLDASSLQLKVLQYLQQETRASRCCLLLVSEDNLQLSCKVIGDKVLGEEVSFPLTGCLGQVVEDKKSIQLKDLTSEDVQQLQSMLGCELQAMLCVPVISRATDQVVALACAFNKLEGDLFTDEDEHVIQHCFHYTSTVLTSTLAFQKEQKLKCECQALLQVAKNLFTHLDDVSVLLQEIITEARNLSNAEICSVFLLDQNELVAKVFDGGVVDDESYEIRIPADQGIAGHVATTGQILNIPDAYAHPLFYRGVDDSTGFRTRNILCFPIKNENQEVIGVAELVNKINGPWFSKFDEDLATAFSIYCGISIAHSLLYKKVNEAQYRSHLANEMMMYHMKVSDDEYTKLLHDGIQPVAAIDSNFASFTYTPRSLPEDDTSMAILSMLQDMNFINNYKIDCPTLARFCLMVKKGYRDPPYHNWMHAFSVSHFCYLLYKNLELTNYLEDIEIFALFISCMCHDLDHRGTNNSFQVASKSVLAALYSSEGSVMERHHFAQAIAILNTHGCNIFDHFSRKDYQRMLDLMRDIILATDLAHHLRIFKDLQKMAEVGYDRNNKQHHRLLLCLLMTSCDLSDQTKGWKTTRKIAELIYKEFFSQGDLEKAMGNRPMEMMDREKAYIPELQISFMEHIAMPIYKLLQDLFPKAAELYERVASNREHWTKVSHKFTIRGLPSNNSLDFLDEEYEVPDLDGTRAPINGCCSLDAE
Description: In vitro assay PDE2A (SPA, 3H-cGMP). It counts as biochemical.
Conditions: not given
As to the method:
Human recombinant PDE2A (hPDE2A) was expressed in Sf9 cells using a recombinant rPDE10A baculovirus construct. Cells were harvested after 48 h of infection and the hPDE2A protein was purified by metal chelate chromatography on Ni-sepharose 6FF. Tested compounds were dissolved and diluted in 100% DMSO to a concentration 100 fold of the final concentration in the assay. Compound dilutions (0.4 μl) were added in 384 well plates to 20 μl of incubation buffer (50 mM Tris pH 7.8, 8.3 mM MgCl2, 1.7 mM EGTA). 10 μl of hPDE2A enzyme in incubation buffer was added and the reaction was started by addition of 10 μl substrate to a final concentration of 10 μM cGMP and 0.01 μCi ^3H-cGMP. The reaction was incubated for 45 minutes at room temperature. […] After sedimentation of the beads during 30 minutes the radioactivity was measured in a Perkin Elmer Topcount scintillation counter and results were expressed as cpm. For blanc values the enzyme was omitted from the reaction and replaced by incubation buffer. Control values were obtained by addition of a final concentration of 1% DMSO instead of compound.
On to `Cl.FC(F)Oc1cccc(CN2[C@H]3CC[C@H](c4cc(C(F)F)nc5ncnn45)[C@@H]2CC3)c1` [Compound 56], for which the IC50 was 525 nM.
For `Cl.FC(F)c1cc([C@H]2CC[C@H]3CC[C@@H]2N3Cc2ccc(Cl)c(Cl)c2)n2ncnc2n1` [Compound 57], the IC50 was 105 nM.

Staying with this assay, now noted: 10 μM cGMP substrate.
In the case of `Cc1cc([C@@H](C)N2CC[C@@H](C)[C@H](c3cc(C(F)F)nc4ncnn34)C2)cc(C2CC2)n1` (relative stereo) [Compound 3], the Emax (commonly the greatest response seen or fitted, relative to the assay's reference) came to 100%.
The same measure, in the same setting: under `C[C@@H]1CCN(Cc2ccc(F)c(F)c2)C[C@H]1c1cc(C(F)F)nc2ncnn12.Cl` [Compound 40] stands 42%.
On the same count and under the same terms, under `C[C@H]1CCN(Cc2ccc(F)c(F)c2)C[C@@H]1c1cc(C(F)F)nc2ncnn12.Cl` [Compound 41] stands 33%; under `C[C@@H]1CCN(Cc2ccc(F)c(F)c2)C[C@@H]1c1cc(C(F)F)nc2ncnn12` [Compound 42], 22%; under `Cc1csc(CN2CC[C@@H](C)[C@H](c3cc(C(F)F)nc4ncnn34)C2)c1.Cl` [Compound 43], 77%.
On the same count and under the same terms, under `Cl.FC(F)Oc1cccc(CN2[C@H]3CC[C@H](c4cc(C(F)F)nc5ncnn45)[C@@H]2CC3)c1` [Compound 56] stands 97%; under `Cl.FC(F)c1cc([C@H]2CC[C@H]3CC[C@@H]2N3Cc2ccc(Cl)c(Cl)c2)n2ncnc2n1` [Compound 57], 100%.

The assay is the same for the next values; noted with them: 10 μM cGMP substrate; read-out: hPDE2A pIC50 (converted).
In the case of `Cc1cc([C@@H](C)N2CC[C@@H](C)[C@H](c3cc(C(F)F)nc4ncnn34)C2)cc(C2CC2)n1` (relative stereo) [Compound 3], the IC50 was 13.5 nM.
On the same count and under the same terms, with `C[C@@H]1CCN(Cc2ccc(F)c(F)c2)C[C@H]1c1cc(C(F)F)nc2ncnn12.Cl` [Compound 40] the figure was 1120 nM; with `C[C@H]1CCN(Cc2ccc(F)c(F)c2)C[C@@H]1c1cc(C(F)F)nc2ncnn12.Cl` [Compound 41], 1950 nM.
Same read-out and setting: under `C[C@@H]1CCN(Cc2ccc(F)c(F)c2)C[C@@H]1c1cc(C(F)F)nc2ncnn12` [Compound 42] stands 3390 nM.

The same assay, now with this note: hPDE2A pIC50, 10 μM cGMP substrate.
In the case of `Cc1csc(CN2CC[C@@H](C)[C@H](c3cc(C(F)F)nc4ncnn34)C2)c1.Cl` [Compound 43], the IC50 was 347 nM.

The next assay concerns hPDE3B. Description: In vitro assay PDE3 (SPA, 3H-cAMP). Format: biochemical, human. The conditions noted are these: 0.4 μM cAMP substrate.
Regarding `Cc1cc([C@@H](C)N2CC[C@@H](C)[C@H](c3cc(C(F)F)nc4ncnn34)C2)cc(C2CC2)n1` (relative stereo) [Compound 3], the “hPDE3B pIC50” value is listed as below 5.
The same measure, in the same setting: under `C[C@@H]1CCN(Cc2ccc(F)c(F)c2)C[C@H]1c1cc(C(F)F)nc2ncnn12.Cl` [Compound 40] stands below 5.
The same measure, in the same setting: under `C[C@H]1CCN(Cc2ccc(F)c(F)c2)C[C@@H]1c1cc(C(F)F)nc2ncnn12.Cl` [Compound 41] stands below 5.
With `C[C@@H]1CCN(Cc2ccc(F)c(F)c2)C[C@@H]1c1cc(C(F)F)nc2ncnn12` [Compound 42], the “hPDE3B pIC50” value is listed as below 5.
With `Cc1csc(CN2CC[C@@H](C)[C@H](c3cc(C(F)F)nc4ncnn34)C2)c1.Cl` [Compound 43], the “hPDE3B pIC50” value is on record as below 5.
On the same count and under the same terms, under `Cl.FC(F)Oc1cccc(CN2[C@H]3CC[C@H](c4cc(C(F)F)nc5ncnn45)[C@@H]2CC3)c1` [Compound 56] stands below 5; under `Cl.FC(F)c1cc([C@H]2CC[C@H]3CC[C@@H]2N3Cc2ccc(Cl)c(Cl)c2)n2ncnc2n1` [Compound 57], below 5.

Still in this assay, the particulars now being: 0.4 μM cAMP substrate; in % (unit assumed).
Regarding `Cc1cc([C@@H](C)N2CC[C@@H](C)[C@H](c3cc(C(F)F)nc4ncnn34)C2)cc(C2CC2)n1` (relative stereo) [Compound 3], the “hPDE3B Emax” value is listed as 19.
Same read-out and setting: under `C[C@@H]1CCN(Cc2ccc(F)c(F)c2)C[C@H]1c1cc(C(F)F)nc2ncnn12.Cl` [Compound 40] stands 10; under `C[C@H]1CCN(Cc2ccc(F)c(F)c2)C[C@@H]1c1cc(C(F)F)nc2ncnn12.Cl` [Compound 41], 20.
The same measure, in the same setting: with `C[C@@H]1CCN(Cc2ccc(F)c(F)c2)C[C@@H]1c1cc(C(F)F)nc2ncnn12` [Compound 42] the figure was 19.
The same measure, in the same setting: with `Cc1csc(CN2CC[C@@H](C)[C@H](c3cc(C(F)F)nc4ncnn34)C2)c1.Cl` [Compound 43] the figure was 0.
In the case of `Cl.FC(F)Oc1cccc(CN2[C@H]3CC[C@H](c4cc(C(F)F)nc5ncnn45)[C@@H]2CC3)c1` [Compound 56], the “hPDE3B Emax” value came out at 26.
Take `Cl.FC(F)c1cc([C@H]2CC[C@H]3CC[C@@H]2N3Cc2ccc(Cl)c(Cl)c2)n2ncnc2n1` [Compound 57]: the “hPDE3B Emax” value worked out at 35.

A further assay has as its target T2, PDE2A (Rattus norvegicus, UniProt Q01062).
T2 construct: Twenty μm-thick striatal sections were cut; from tissue; host or cells: rat brain, striatal sections
T2 sequence (Q01062 1-928): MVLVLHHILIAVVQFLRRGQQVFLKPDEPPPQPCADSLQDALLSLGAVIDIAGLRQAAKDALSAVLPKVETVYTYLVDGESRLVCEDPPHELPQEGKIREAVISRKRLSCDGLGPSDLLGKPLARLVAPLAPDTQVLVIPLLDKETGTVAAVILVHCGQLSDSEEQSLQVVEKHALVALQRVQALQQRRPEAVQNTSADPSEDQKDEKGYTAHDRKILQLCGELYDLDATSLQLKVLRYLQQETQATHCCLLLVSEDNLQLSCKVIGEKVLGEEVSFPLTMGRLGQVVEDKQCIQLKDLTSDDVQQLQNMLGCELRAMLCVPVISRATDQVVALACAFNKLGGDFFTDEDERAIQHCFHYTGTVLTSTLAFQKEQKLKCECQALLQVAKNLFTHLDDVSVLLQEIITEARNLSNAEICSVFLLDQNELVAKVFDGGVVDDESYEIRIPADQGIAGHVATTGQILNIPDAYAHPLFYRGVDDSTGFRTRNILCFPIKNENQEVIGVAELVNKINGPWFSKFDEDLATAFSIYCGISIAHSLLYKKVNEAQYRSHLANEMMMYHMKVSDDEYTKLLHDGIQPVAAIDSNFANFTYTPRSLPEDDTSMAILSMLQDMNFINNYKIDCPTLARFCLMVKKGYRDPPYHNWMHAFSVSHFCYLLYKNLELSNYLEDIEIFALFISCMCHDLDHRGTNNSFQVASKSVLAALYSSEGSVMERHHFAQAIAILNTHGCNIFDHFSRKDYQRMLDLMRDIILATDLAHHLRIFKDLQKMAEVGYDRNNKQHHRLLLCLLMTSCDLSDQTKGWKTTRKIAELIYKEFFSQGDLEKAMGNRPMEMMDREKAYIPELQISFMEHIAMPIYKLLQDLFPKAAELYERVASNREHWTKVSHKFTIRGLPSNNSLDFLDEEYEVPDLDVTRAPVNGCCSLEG
As to the kind of experiment: PDE2 occupancy by ex-vivo autoradiography with [3H]B-17a. It counts as in vivo. The conditions noted are these: po, read-out: PDE2 occupancy at 10 mg/kg. How it is done: Brains were immediately removed from the skull and rapidly frozen in dry-ice cooled 2-methylbutane (−40° C.).
After thawing, sections were dried under a cold stream of air and incubated for one minute with 30 nM [^3H]B-17a in Tris-HCl (50 mM, pH7.4) containing 0.3% BSA. Brain sections from drug-treated and vehicle-treated animals were incubated in parallel. […] After incubation, the excess of [^3H]B-17a was washed off in ice-cold buffer 2 times 10 minutes, followed by a quick dip in distilled water. The sections were then dried under a stream of cold air.
Brain sections were loaded in a […] (Biospace, Paris) for 4 h and radioactivity emerging from delineated brain area was quantified using the Beta vision program (Biospace, Paris). Specific binding was determined as the difference between total binding in the striatum and non-specific binding in the cerebellum. Percentage receptor occupancy of the drug administered to the animal corresponded to 100% minus the percentage receptor labeled in the treated animal. For the determination of ED50-values, the percentage of receptor occupancy was plotted against dose and the sigmoidal log dose-effect curve of best fit was calculated by non-linear regression analysis, using the GraphPad Prism program.
As for `Cc1cc([C@@H](C)N2CC[C@@H](C)[C@H](c3cc(C(F)F)nc4ncnn34)C2)cc(C2CC2)n1` (relative stereo) [Compound 3], the receptor occupancy at 10 mg/kg worked out at 21%.

The target in the next assay is hPDE10A2 (Homo sapiens, UniProt Q9Y233). As to the kind of experiment: biochemical. The conditions noted are these: human clone; 60 nM cAMP substrate; read-out: hPDE10A2 or rPDE10A2 pIC50 (converted). As to the method: Rat recombinant PDE10A (rPDE10A2) was expressed in Sf9 cells using a recombinant rPDE10A baculovirus construct. Cells were harvested after 48 h of infection and the rPDE10A protein was purified by metal chelate chromatography on Ni-sepharose 6FF. Tested compounds were dissolved and diluted in 100% DMSO to a concentration 100 fold of the final concentration in the assay. Human recombinant PDE10A ([…]) was expressed in Sf9 cells using a recombinant hPDE10A baculovirus that was made and amplified in house. Cells were harvested after 72 h of infection and the hPDE10A protein was purified by metal chelate chromatography on Ni-sepharose. Compound dilutions (0.4 μl) were added in 384 well plates to 20 μl of incubation buffer (50 mM Tris pH 7.8, 8.3 mM MgCl2, 1.7 mM EGTA). 10 μl of rPDE10A or hPDE10A enzyme in incubation buffer was added and the reaction was started by addition of 10 μl substrate to a final concentration of 60 nM cAMP and […] ^3H-cAMP. The reaction was incubated for 60 minutes at room temperature. After incubation, the reaction was stopped with 20 μl of stop solution consisting of 17.8 mg/ml PDE SPA (scintillation proximity assay) beads. After sedimentation of the beads during 30 minutes the radioactivity was measured in a Perkin Elmer Topcount scintillation counter and results were expressed as cpm. For blanc values the enzyme was omitted from the reaction and replaced by incubation buffer. Control values were obtained by addition of a final concentration of 1% DMSO instead of compound. A best fit curve is fitted by a minimum sum of squares method to the plot of % of control value substracted with blanc value versus compound concentration and the half maximal inhibitory concentration (IC50) value is derived from this curve.
Chain of hPDE10A2 (Q9Y233 267-1055): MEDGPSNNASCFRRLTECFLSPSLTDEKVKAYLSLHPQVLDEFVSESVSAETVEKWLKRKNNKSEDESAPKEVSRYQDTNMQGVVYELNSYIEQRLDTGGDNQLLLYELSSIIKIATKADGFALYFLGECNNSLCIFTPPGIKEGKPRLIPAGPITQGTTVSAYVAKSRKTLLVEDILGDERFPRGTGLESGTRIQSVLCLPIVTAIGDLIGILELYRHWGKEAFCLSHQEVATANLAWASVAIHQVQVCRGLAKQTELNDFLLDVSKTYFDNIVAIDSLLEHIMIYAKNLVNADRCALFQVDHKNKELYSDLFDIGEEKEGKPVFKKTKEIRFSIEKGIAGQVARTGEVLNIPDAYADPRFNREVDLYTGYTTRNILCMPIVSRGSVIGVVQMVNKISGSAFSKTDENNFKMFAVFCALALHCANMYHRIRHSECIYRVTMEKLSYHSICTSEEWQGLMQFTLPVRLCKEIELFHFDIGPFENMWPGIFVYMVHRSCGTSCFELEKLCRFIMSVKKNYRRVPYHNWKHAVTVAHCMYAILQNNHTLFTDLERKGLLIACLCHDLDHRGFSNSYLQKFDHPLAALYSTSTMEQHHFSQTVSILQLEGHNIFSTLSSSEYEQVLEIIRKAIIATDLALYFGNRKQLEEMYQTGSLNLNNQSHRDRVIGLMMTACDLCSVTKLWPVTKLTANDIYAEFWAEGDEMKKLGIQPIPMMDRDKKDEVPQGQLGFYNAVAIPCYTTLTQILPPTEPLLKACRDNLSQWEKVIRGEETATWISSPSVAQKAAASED
For the compound `Cc1cc([C@@H](C)N2CC[C@@H](C)[C@H](c3cc(C(F)F)nc4ncnn34)C2)cc(C2CC2)n1` (relative stereo) [Compound 3], the IC50 was 1260 nM.
On the same count and under the same terms, with `C[C@@H]1CCN(Cc2ccc(F)c(F)c2)C[C@H]1c1cc(C(F)F)nc2ncnn12.Cl` [Compound 40] the figure was above 10000 nM.
`C[C@H]1CCN(Cc2ccc(F)c(F)c2)C[C@@H]1c1cc(C(F)F)nc2ncnn12.Cl` [Compound 41]: the IC50 is above 10000 nM.
`C[C@@H]1CCN(Cc2ccc(F)c(F)c2)C[C@@H]1c1cc(C(F)F)nc2ncnn12` [Compound 42]: the IC50 was above 10000 nM.
Still for that read-out and setting: under `Cc1csc(CN2CC[C@@H](C)[C@H](c3cc(C(F)F)nc4ncnn34)C2)c1.Cl` [Compound 43] stands 6920 nM; under `Cl.FC(F)Oc1cccc(CN2[C@H]3CC[C@H](c4cc(C(F)F)nc5ncnn45)[C@@H]2CC3)c1` [Compound 56], above 10000 nM.
On the same count and under the same terms, with `Cl.FC(F)c1cc([C@H]2CC[C@H]3CC[C@@H]2N3Cc2ccc(Cl)c(Cl)c2)n2ncnc2n1` [Compound 57] the figure was 7940 nM.

Still in this assay, the particulars now being: read-out: hPDE10A2 or rPDE10A2 Emax, human clone; 60 nM cAMP substrate.
As to `Cc1cc([C@@H](C)N2CC[C@@H](C)[C@H](c3cc(C(F)F)nc4ncnn34)C2)cc(C2CC2)n1` (relative stereo) [Compound 3], the Emax came to 91%.
Regarding `C[C@@H]1CCN(Cc2ccc(F)c(F)c2)C[C@H]1c1cc(C(F)F)nc2ncnn12.Cl` [Compound 40], the Emax amounted to 35%.
On the same count and under the same terms, under `C[C@H]1CCN(Cc2ccc(F)c(F)c2)C[C@@H]1c1cc(C(F)F)nc2ncnn12.Cl` [Compound 41] stands 15%.
The same measure, in the same setting: under `C[C@@H]1CCN(Cc2ccc(F)c(F)c2)C[C@@H]1c1cc(C(F)F)nc2ncnn12` [Compound 42] stands 45%; under `Cc1csc(CN2CC[C@@H](C)[C@H](c3cc(C(F)F)nc4ncnn34)C2)c1.Cl` [Compound 43], 44%.
The same measure, in the same setting: under `Cl.FC(F)Oc1cccc(CN2[C@H]3CC[C@H](c4cc(C(F)F)nc5ncnn45)[C@@H]2CC3)c1` [Compound 56] stands 43%; under `Cl.FC(F)c1cc([C@H]2CC[C@H]3CC[C@@H]2N3Cc2ccc(Cl)c(Cl)c2)n2ncnc2n1` [Compound 57], 58%.
